Measured values: US9018258B2, “Substituted 1-benzylcycloalkylcarboxylic acids and the use thereof” (Bayer Intellectual Property GmbH, priority 2010, dated 2015)

What was measured:
sGC = target: T1, sGC (Rattus norvegicus, UniProt P20595); assay: Action at a recombinant guanylate cyclase reporter cell line (CHO reporter cell); type: cell-based; conditions: CHO reporter cell in vitro
T1 construct: expressed in transfected cells; host or cells: CHO reporter cell
Description: The cellular action of the compounds according to the invention is determined at a recombinant guanylate cyclase reporter cell line, as described in F. Wunder et al., Anal. Biochem. 339, 104-112 (2005).

[1] = target: T2, soluble guanylate cyclase (sGC) (Rattus norvegicus, UniProt P20595); assay: Stimulation of sGC enzyme activity (PPi detection, luciferase); type: biochemical; conditions: sGC enzyme in vitro; for EC50: read-out: EC50 (concentration at 50% of maximum efficacy), activating action at the sGC enzyme
T2 construct: made in house; host or cells: Sf9 insect cells (baculovirus)
Description: Soluble guanylate cyclase (sGC) converts on stimulation GTP into cGMP and pyrophosphate (PPi). PPi is detected with the aid of the assay described below. The signal produced in the assay increases as the reaction progresses and serves as a measure of the sGC enzyme activity under the given stimulation.
To carry out the assay, 29 μl of enzyme solution [0-10 nM soluble guanylate cyclase (prepared according to Honicka et al., J. Mol. Med. 77, 14-23 (1999)) in 50 mM TEA, 2 mM MgCl2, 0.1% BSA (fraction V), 0.005% Brij®, pH 7.5] are initially introduced into a microplate, and 1 μl of the substance to be tested (as a serially diluted solution in DMSO) is added. The mixture is incubated at room temperature for 10 min. Then 20 μl of detection mix [1.2 nM Firefly Luciferase (Photinus pyralis luciferase, Promega), 29 μM dehydroluciferin (prepared according to Bitler & McElroy, Arch. Biochem. Biophys. 72, 358 (1957)), 122 μM luciferin (Promega), 153 μM ATP (Sigma) and 0.4 mM DTT (Sigma) in 50 mM TEA, 2 mM MgCl2, 0.1% BSA (fraction V), 0.005% Brij®, pH 7.5] are added. The enzyme reaction is started by adding 20 μl of substrate solution [1.25 mM guanosine 5′-triphosphate (Sigma) in 50 mM TEA, 2 mM MgCl2, 0.1% BSA (fraction V), 0.005% Brij®, pH 7.5] and measured continuously in a luminometer. The extent of the stimulation by the substance to be tested can be determined relative to the signal of the unstimulated reaction.
The activation of haem-free guanylate cyclase is examined by addition of 25 μM of 1H-1,2,4-oxadiazolo[4,3-a]quinoxalin-1-one (ODQ) to the enzyme solution and subsequent incubation for 30 minutes and compared to the stimulation of the native enzyme.

saphenous artery = assay: Vasorelaxant effect in vitro (phenylephrine-contracted saphenous artery rings); design: species or system Rabbits; conditions: Oryctolagus cuniculus; rabbit saphenous artery rings, phenylephrine-induced contraction
Description: Rabbits are anaesthetized and sacrificed by intravenous injection of thiopental sodium (about 50 mg/kg) and exsanguinated. The saphenous artery is removed and divided into rings 3 mm wide. the rings are mounted singly on in each case a pair of triangular hooks open at the end and made of 0.3 mm-thick special wire (Remanium®). Each ring is placed under an initial tension in 5 ml organ baths with Krebs-Henseleit solution which is at 37° C., is gassed with carbogen and has the following composition: NaCl 119 mM; KCl 4.8 mM; CaCl2×2 H2O 1 mM; MgSO4×7 H2O 1.4 mM; KH2PO4 1.2 mM; NaHCO3 25 mM; glucose 10 mM; bovine serum albumin 0.001%. The force of contraction is detected with Statham UC2 cells, amplified and digitized via A/D converters (DAS-1802 HC, Keithley Instruments, Munich) and recorded in parallel on chart recorders. Contractions are induced by addition of phenylephrine.
After several (generally 4) control cycles, the substance to be investigated is added in each further run in increasing dosage, and the level of the contraction achieved under the influence of the test substance is compared with the level of the contraction reached in the last preceding run. The concentration necessary to reduce the contraction reached in the preceding control by 50% is calculated from this (IC50). The standard application volume is 5 μl. The proportion of DMSO in the bath solution corresponds to 0.1%.

GAL4-PPARα = target: T3, GAL4-PPARα (Homo sapiens, UniProt Q07869); assay: Cellular PPAR transactivation assay, GAL4-PPARα chimera in CHO-K1 cells; type: cell-based
T3 construct: expressed in transfected cells
T3 sequence (Q07869 167-468): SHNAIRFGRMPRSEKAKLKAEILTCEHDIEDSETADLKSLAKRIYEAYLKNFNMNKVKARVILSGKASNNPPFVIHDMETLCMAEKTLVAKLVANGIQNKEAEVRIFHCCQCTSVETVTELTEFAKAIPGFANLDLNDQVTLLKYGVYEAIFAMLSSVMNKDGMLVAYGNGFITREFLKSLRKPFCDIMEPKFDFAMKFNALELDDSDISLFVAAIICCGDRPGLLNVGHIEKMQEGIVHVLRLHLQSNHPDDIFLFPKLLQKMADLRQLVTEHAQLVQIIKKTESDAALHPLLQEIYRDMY
Excerpt: (§1) A cellular assay is used to test for potentially activating properties of the compounds according to the invention with respect to the three human isoforms of the peroxisome proliferator-activated receptors (PPARα, PPARγ and PPARδ).
(§2) Since mammalian cells contain different endogenous nuclear receptors which may complicate an unambiguous interpretation of the results, an established chimera system is used in which the respective ligand binding domain of the human PPAR isoforms is fused to the DNA binding domain of the yeast transcription factor GAL4. The resulting GAL4-PPARα, γ and δ chimeras are co-transfected and stably expressed in CHO cells having a reporter construct.
(§3) The GAL4-PPAR expression constructs contain the ligand binding domain of PPARα (amino acids 167-468), PPARγ (amino acids 203-506) and PPARδ (amino acids 138-442) which are PCR-amplified and cloned into the vector pcDNA3.1. The respective expression vectors already contain the GAL4 DNA binding domain (amino acids 1-147) of the vector pFC2-dbd (Stratagene). The reporter construct, which contains five copies of the GAL4 binding site upstream of a thymidine kinase promoter, expresses firefly luciferase (Photinus pyralis) following activation and binding of GAL4-PPARα, γ or δ.
(§4) The day before the test, CHO-K1 cells (chinese hamster ovary; ATCC CCL-61) each stably expressing one of the above-described GAL4-PPAR chimeras and the luciferase reporter gene construct are sown in medium [Optimem (GIBCO) with 2% activated carbon-purified foetal calf serum (Hyclone), 1.35 mM sodium pyruvate (GIBCO) and 0.2% sodium bicarbonate (GIBCO)] in a density of 1×10^3 cells in 96-well microtitre plates (Greiner) and kept in a cell incubator (96% atmospheric humidity, 5% v/v CO2, 37° C.). On the test day, the substances to be tested are taken up in the medium mentioned above, but without addition of calf serum, and added in various concentrations to the cells. After a stimulation period of 6 h, the luciferase activity is measured using a video camera. The relative light units measured give, as a function of the substance concentration, a sigmoidal stimulation curve. The EC50 values are calculated using the computer programme GraphPad PRISM (Version 3.02). The maximum effect of a test substance in the respective PPAR assay is determined as efficacy in percent in comparison to an appropriate reference compound whose maximum effect is defined as 100%.
(§5) The reference compound selected here was the compound 2-(3-{[(2-chloro-4-propoxybenzoyl)-amino]methyl}-4-ethoxybenzyl)tetrahydrofuran-2-carboxylic acid [Example 73 of EP 1 452 521-A1] which is described in the prior art as a potent pan-PPAR agonist.

GAL4-PPARγ = target: T4, GAL4-PPARγ (Homo sapiens, UniProt P37231); assay: Cellular PPAR transactivation assay, GAL4-PPARγ chimera in CHO-K1 cells; type: cell-based
T4 construct: PPARγ (amino acids 203-506); expressed in transfected cells
T4 sequence (P37231 203-505 limits assumed): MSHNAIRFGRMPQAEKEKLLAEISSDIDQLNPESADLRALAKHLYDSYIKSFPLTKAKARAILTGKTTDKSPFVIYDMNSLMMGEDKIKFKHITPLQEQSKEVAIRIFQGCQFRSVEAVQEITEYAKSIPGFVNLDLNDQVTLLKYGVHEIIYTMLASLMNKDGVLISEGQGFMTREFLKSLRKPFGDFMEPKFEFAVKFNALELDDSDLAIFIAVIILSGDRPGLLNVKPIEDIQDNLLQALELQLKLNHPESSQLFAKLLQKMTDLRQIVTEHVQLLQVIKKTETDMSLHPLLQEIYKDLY
Excerpt: as §1, §2, §3, §4, §5

GAL4-PPARδ = target: T5, GAL4-PPARδ (Homo sapiens, UniProt Q03181); assay: Cellular PPAR transactivation assay, GAL4-PPARδ chimera in CHO-K1 cells; type: cell-based
T5 construct: PPARδ (amino acids 138-442); expressed in transfected cells
T5 sequence (Q03181 138-441 limits assumed): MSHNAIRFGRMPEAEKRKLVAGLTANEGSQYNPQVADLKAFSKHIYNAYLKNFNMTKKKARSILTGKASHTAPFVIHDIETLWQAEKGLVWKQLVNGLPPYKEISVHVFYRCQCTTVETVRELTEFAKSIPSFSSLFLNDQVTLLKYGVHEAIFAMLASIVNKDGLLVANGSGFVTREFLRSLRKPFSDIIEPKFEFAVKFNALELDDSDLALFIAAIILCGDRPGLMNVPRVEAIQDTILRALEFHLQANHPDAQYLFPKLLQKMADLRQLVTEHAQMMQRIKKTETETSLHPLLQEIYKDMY
Excerpt: as §1, §2, §3, §4, §5

[2] = CHO-K1 cells, luciferase reporter, 6 h stimulation

T2 sequence (P19686 whole entry partner): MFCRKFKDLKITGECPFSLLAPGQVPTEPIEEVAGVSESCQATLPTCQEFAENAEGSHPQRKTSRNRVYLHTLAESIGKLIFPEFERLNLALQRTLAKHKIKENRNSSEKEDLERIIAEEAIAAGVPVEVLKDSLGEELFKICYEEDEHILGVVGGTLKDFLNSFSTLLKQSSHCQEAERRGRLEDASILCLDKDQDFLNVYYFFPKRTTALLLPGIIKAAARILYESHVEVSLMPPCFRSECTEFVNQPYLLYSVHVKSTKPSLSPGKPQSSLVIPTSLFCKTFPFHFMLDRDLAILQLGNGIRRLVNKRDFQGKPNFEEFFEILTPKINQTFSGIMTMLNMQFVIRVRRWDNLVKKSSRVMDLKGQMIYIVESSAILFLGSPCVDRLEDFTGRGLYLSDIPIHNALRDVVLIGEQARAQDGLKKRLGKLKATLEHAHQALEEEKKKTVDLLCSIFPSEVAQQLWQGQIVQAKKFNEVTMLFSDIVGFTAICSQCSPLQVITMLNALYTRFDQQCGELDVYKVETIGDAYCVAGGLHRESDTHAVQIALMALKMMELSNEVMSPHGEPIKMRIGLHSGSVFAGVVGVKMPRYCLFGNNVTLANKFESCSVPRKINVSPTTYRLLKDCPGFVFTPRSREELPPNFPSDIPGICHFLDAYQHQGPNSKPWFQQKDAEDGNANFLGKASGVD
T2 sequence (P20595 whole entry): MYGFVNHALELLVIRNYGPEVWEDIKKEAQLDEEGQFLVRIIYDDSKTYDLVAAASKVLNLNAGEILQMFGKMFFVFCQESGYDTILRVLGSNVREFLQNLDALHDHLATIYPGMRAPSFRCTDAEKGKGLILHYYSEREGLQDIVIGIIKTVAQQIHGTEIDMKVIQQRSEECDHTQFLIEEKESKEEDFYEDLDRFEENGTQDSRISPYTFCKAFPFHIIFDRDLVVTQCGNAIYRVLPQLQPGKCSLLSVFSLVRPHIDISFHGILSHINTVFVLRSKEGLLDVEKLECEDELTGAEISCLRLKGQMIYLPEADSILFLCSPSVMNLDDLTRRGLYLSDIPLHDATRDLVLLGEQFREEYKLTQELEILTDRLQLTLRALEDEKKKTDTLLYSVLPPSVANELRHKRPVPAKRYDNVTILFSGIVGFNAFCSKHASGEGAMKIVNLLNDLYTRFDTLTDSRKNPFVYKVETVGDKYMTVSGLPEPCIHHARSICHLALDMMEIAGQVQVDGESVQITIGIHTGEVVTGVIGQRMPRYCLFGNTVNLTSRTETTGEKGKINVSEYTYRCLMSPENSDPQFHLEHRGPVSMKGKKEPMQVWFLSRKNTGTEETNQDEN
T1 sequence (P19686 whole entry partner): as the sequence (P19686 whole entry partner) above
T1 sequence (P20595 whole entry): as the sequence (P20595 whole entry) above

MEC (minimum effective concentration), sGC-activating activity in the CHO reporter cell (sGC) | MEC (minimum effective concentration), activating action at the sGC enzyme [1] | EC50 [1] | IC50 (saphenous artery) | Emax (GAL4-PPARα; CHO-K1, maximum effect relative to reference compound (Example 73 of EP 1 452 521-A1 = 100%), read-out: PPARα efficacy) | EC50 (GAL4-PPARα; [2]) | Emax (GAL4-PPARγ; CHO-K1, maximum effect relative to reference compound (Example 73 of EP 1 452 521-A1 = 100%), read-out: PPARγ efficacy) | EC50 (GAL4-PPARγ; [2]) | Emax (GAL4-PPARδ; CHO-K1, maximum effect relative to reference compound (Example 73 of EP 1 452 521-A1 = 100%), read-out: PPARδ efficacy) | EC50 (GAL4-PPARδ; [2]) | SMILES
0.3 nM | 0.7 nM | 20 nM | 338 nM | – | – | – | – | – | – | CCOC(c1ccc(Cl)c(NC(=O)[C@H](c2ccc(Cl)cc2)[C@@H](C)C(F)(F)F)c1)C1(C(=O)O)CCC1 (single isomer, unassigned) [Example 109]
0.3 nM | 3.0 nM | 21 nM | – | 0% | > 10000 nM | 20% | 1900 nM | 0% | > 10000 nM | C[C@H]([C@H](C(=O)Nc1cc(CC2(C(=O)O)CC2)ccc1F)c1ccc(Cl)cc1)C(F)(F)F [Example 51, (+)-1-(3-{[(2S,3R)-2-(4-Chlorophenyl)-4,4,4-trifluoro-3-methylbutanoyl]amino}-4-fluorobenzyl)-cyclopropanecarboxylic acid]
